How the values were obtained:
potassium arsenate = compound: O=[As]([O-])(O)O.[K+] [potassium arsenate]; assay: thermal stability z-score vs DMSO; higher = more thermally stabilized by treatment; conditions: HeLa; arsenate concentration 1 mM
Method: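 Cellular thermal proteome profiling in HeLa cells treated with 1 mM arsenate for 1 h (DMSO pretreatment), heated to ten temperatures (37-66.3 °C). Soluble protein was quantified by TMT mass spectrometry relative to DMSO controls; the thermal stability score was transformed to a z-score; mean of n = 3 experiments.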

lipoamide = compound: NC(=O)CCCCC1CCSS1 [lipoamide]; assay: as above; conditions: HeLa, lipoamide concentration 100 µM
Method: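 Cellular thermal proteome profiling in HeLa cells. Cells were treated with 100 µM lipoamide for 1 h, with or without 1 mM arsenate for a further 1 h, then heated to ten temperatures (37-66.3 °C), and soluble protein was quantified by TMT mass spectrometry relative to 0.1% DMSO controls. The thermal stability score (sum of log2 fold changes minus the abundance score) was transformed to a z-score; mean of n = 3 experiments.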

[1] = arsenate co-treatment: 1 mM arsenate 1 h
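Also: each temperature applied for 3 min, abundance score taken as mean log2 fold change at the two lowest temperatures, z-score obtained by mean subtraction and division by SD.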

Chain of UniProt Q9NVE7 (Q9NVE7 whole entry): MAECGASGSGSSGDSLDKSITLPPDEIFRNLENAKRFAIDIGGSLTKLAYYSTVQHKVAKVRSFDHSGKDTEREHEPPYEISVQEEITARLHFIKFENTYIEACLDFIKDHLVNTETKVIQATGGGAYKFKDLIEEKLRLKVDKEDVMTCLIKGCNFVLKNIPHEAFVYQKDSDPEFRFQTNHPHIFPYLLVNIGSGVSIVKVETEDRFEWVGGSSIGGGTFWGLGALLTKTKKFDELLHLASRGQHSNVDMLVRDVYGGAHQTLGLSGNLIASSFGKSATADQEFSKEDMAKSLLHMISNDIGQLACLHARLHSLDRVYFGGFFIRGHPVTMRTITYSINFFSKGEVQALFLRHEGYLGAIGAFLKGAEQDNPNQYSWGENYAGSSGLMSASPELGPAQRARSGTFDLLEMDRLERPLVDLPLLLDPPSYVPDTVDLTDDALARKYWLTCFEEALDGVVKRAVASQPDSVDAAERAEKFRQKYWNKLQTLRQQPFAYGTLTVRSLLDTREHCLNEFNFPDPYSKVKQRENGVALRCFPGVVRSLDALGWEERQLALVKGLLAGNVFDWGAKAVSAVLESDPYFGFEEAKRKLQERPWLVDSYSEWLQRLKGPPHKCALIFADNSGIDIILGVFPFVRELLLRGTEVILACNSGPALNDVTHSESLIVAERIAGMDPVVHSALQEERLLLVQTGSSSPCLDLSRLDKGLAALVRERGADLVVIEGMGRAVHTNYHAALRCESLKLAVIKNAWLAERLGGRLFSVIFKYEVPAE
Chain of UniProt Q9H0J9 (Q9H0J9 whole entry): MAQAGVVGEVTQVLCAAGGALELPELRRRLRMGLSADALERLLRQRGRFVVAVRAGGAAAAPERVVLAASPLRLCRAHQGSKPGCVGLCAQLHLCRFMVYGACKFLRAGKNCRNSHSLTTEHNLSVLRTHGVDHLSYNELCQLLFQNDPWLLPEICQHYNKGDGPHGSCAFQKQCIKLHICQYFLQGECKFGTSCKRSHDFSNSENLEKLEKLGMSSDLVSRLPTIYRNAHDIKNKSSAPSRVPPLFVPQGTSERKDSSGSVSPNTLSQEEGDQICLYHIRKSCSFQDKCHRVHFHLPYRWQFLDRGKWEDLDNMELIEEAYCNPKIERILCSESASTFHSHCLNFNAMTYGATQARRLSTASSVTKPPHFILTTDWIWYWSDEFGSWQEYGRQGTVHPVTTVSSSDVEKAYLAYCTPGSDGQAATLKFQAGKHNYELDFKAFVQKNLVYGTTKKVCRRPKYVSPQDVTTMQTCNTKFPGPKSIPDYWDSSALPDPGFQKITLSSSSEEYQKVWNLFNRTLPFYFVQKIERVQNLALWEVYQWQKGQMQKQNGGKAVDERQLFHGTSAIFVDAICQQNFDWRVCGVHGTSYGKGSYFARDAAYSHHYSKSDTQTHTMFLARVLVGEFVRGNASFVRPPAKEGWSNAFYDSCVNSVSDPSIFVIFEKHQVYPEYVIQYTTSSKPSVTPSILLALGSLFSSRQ
Chain of UniProt O95747 (O95747 whole entry, looked up): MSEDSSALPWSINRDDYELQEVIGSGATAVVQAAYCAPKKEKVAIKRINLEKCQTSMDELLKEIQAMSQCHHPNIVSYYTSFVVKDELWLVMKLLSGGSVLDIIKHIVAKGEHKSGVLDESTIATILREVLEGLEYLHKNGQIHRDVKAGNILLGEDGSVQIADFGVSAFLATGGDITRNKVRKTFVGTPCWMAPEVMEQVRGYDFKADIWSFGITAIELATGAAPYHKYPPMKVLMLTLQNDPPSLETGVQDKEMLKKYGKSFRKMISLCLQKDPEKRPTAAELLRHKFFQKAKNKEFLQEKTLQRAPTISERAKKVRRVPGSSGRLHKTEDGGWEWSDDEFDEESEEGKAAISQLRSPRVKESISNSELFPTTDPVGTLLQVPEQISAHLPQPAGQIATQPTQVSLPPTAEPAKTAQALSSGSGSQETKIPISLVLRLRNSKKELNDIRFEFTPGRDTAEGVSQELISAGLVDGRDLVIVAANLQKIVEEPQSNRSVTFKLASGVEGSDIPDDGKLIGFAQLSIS
Chain of UniProt Q06141 (Q06141 whole entry): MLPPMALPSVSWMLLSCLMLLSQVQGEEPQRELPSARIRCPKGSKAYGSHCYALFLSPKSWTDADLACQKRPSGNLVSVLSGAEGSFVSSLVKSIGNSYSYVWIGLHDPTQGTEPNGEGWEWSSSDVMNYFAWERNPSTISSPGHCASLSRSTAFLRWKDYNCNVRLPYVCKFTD
Chain of UniProt Q6VY07 (Q6VY07 whole entry, looked up): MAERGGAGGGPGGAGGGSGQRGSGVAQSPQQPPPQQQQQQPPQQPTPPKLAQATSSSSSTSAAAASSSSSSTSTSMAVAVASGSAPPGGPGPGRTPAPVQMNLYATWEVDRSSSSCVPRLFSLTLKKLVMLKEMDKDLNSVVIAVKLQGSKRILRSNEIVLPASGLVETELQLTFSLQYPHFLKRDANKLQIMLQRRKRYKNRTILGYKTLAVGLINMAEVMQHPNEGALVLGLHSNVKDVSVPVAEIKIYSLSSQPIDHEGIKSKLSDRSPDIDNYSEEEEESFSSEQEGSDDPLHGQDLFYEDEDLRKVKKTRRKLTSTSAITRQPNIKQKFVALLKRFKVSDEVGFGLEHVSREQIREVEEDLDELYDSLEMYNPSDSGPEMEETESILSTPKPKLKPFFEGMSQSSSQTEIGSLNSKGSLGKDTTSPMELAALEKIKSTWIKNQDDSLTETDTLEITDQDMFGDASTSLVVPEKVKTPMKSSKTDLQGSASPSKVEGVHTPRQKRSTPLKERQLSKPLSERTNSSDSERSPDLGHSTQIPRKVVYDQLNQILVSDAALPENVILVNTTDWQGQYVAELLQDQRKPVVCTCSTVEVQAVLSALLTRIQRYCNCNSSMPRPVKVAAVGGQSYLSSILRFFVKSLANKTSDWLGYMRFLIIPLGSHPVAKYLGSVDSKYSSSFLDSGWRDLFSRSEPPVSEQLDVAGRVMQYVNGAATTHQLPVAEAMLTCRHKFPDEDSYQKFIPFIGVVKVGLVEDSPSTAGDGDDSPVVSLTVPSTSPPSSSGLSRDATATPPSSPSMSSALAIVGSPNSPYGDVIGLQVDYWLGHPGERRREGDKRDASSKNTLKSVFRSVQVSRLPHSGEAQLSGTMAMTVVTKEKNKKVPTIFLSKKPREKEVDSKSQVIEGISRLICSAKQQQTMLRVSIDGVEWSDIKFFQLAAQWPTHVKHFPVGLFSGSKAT
Chain of UniProt Q9NWU1 (Q9NWU1 whole entry): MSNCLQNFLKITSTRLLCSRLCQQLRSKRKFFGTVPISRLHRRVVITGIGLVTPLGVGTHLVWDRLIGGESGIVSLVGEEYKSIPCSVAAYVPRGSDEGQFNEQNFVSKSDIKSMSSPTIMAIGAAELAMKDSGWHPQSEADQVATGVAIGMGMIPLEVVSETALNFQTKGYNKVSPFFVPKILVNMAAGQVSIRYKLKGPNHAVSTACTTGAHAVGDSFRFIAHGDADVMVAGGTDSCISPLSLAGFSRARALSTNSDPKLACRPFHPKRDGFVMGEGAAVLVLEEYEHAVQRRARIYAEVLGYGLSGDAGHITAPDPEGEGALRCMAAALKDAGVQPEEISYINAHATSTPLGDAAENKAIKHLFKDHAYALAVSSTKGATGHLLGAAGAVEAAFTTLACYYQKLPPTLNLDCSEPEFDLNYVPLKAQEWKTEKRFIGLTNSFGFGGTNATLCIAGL
Chain of UniProt Q8TEW0 (Q8TEW0 whole entry): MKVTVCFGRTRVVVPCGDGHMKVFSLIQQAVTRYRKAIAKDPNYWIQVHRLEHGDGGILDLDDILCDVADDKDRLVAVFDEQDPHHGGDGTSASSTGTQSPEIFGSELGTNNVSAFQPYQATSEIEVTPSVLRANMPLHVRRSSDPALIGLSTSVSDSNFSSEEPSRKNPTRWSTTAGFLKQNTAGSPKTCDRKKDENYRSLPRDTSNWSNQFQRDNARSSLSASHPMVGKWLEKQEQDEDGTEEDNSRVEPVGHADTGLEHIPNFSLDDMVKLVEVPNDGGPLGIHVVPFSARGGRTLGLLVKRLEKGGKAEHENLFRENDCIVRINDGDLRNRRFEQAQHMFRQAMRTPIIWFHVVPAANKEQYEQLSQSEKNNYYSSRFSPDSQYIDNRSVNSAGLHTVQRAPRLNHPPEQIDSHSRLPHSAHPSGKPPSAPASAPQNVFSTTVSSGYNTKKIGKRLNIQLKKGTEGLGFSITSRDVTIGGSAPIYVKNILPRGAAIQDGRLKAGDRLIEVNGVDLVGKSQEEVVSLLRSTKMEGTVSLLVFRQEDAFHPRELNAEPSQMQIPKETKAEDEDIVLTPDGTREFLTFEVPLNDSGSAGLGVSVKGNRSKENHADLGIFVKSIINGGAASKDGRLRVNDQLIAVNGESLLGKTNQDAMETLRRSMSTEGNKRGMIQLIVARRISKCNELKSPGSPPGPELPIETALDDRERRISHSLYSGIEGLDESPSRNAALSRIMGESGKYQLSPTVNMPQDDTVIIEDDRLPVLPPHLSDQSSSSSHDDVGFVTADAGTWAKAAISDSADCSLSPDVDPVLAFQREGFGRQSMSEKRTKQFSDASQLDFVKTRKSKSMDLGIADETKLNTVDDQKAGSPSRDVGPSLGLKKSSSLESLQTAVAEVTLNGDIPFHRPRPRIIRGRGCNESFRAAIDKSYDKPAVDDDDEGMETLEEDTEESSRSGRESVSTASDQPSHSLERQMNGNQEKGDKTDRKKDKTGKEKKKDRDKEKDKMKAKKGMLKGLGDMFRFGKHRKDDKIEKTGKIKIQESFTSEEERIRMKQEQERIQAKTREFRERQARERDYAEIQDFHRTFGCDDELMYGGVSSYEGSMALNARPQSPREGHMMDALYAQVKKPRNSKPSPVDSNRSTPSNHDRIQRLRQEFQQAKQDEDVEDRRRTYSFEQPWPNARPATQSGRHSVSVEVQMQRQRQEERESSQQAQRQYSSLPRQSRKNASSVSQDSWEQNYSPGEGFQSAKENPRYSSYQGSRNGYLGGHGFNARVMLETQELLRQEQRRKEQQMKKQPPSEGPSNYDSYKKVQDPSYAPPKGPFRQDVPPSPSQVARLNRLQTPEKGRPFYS

Target	thermal stability z-score (potassium arsenate)	thermal stability z-score (lipoamide; [1])	thermal stability z-score (lipoamide; arsenate co-treatment: none)
OVCA2 (UniProt Q8WZ82)	-0.0892	-0.0187	0.0328
OXA1L (UniProt Q15070)	-0.251	-0.709	-0.369
OXCT1 (UniProt P55809)	-1.12	-0.159	-0.108
OXNAD1 (UniProt Q96HP4)	-0.691	0.221	0.451
OXR1 (UniProt Q8N573)	0.101	0.209	0.17
OXSM (UniProt Q9NWU1)	0.51	-0.024	0.0818
OXSR1 (UniProt O95747)	-0.408	0.903	0.68
P3H1 (UniProt Q32P28)	1.2	-4.35	-3.23
P3H2 (UniProt Q8IVL5)	1.11	-4.71	-4.05
P3H4 (UniProt Q92791)	0.936	-4.72	-3.94
P4HA1 (UniProt P13674)	1.27	-4.31	-3.57
P4HA2 (UniProt O15460)	0.573	-3.73	-3.49
P4HB (UniProt P07237)	0.47	-0.224	0.393
P4HTM (UniProt Q9NXG6)	-0.0889	0.0884	-0.262
P1394_HsINTS1|INTS1	0.145	-0.0499	-0.0292
PA2G4 (UniProt Q9UQ80)	1.4	0.127	0.183
PAAF1 (UniProt Q9BRP4)	-0.478	-0.442	-0.906
PABPC1 (UniProt P11940)	-0.758	0.469	0.549
PABPC4 (UniProt Q13310)	-0.478	0.322	0.911
PACS1 (UniProt Q6VY07)	0.404	-0.0876	0.134
PACSIN2 (UniProt Q9UNF0)	0.638	0.246	0.134
PACSIN3 (UniProt Q9UKS6)	-0.842	0.00517	0.149
PAF1 (UniProt Q8N7H5)	-0.714	0.0739	-0.631
PAFAH1B1 (UniProt P43034)	-0.241	0.258	-0.161

Target	thermal stability z-score (potassium arsenate)	thermal stability z-score (lipoamide; [1])	thermal stability z-score (lipoamide; arsenate co-treatment: none)
PAFAH1B2 (UniProt P68402)	-0.469	0.526	0.289
PAFAH1B3 (UniProt Q15102)	0.275	0.574	0.345
PAFAH2 (UniProt Q99487)	-0.363	0.543	-0.499
PAGE1 (UniProt O75459)	-0.636	0.147	0.51
PAGR1 (UniProt Q9BTK6)	-0.194	0.263	-0.446
PAICS (UniProt P22234)	-0.0525	0.653	0.549
PAIP1 (UniProt Q9H074)	0.0886	0.875	0.836
PAIP2 (UniProt Q9BPZ3)	-1.06	0.427	0.233
PAK1 (UniProt Q13153)	0.771	0.413	0.286
PAK1IP1 (UniProt Q9NWT1)	-1.53	0.104	-0.651
PAK2 (UniProt Q13177)	-0.165	-0.044	0.283
PAK4 (UniProt O96013)	-0.347	-0.224	-0.347
PALLD (UniProt Q8WX93)	-0.249	-0.57	0.141
PALM (UniProt O75781)	-0.681	-0.195	-0.143
PALMD (UniProt Q9NP74)	1.81	1.1	0.987
PAM (UniProt P19021)	-1.17	-1.15	-1.32
PAN2 (UniProt Q504Q3)	-0.143	0.0953	-0.21
PAN3 (UniProt Q58A45)	-0.257	-0.038	0.0344
PANK2 (UniProt Q9BZ23)	0.53	0.583	0.588
PANK3 (UniProt Q9H999)	0.672	1.22	0.571
PANK4 (UniProt Q9NVE7)	0.112	-0.399	-0.303
PANX1 (UniProt Q96RD7)	0.123	0.67	0.0977
PAP1 (UniProt Q06141)	-0.156	-0.00124	-0.19
PAPD5 (UniProt Q8NDF8)	-0.0587	0.175	-0.0726

Target	thermal stability z-score (potassium arsenate)	thermal stability z-score (lipoamide; [1])	thermal stability z-score (lipoamide; arsenate co-treatment: none)
PAPOLA (UniProt P51003)	-0.119	-0.22	-0.103
PAPOLG (UniProt Q9BWT3)	0.167	-0.086	0.083
PAPSS1 (UniProt O43252)	0.0908	-0.0513	-0.0832
PAPSS2 (UniProt O95340)	1.57	-0.146	-0.156
PARD3 (UniProt Q8TEW0)	-0.00597	0.02	0.0237
PARD6B (UniProt Q9BYG5)	-0.0258	0.233	-0.00454
PARG (UniProt Q86W56)	0.0362	-0.123	0.257
PARK7 (UniProt Q99497)	4.42	4.83	0.686
PARL (UniProt Q9H300)	0.57	-0.134	-0.733
PARN (UniProt O95453)	0.95	0.181	-0.273
PARP1 (UniProt P09874)	-2.03	-0.643	0.7
PARP2 (UniProt Q9UGN5)	-0.0979	0.0296	-0.0685
PARP4 (UniProt Q9UKK3)	0.742	0.157	-0.044
PARP9 (UniProt Q8IXQ6)	-0.0858	-0.239	-0.1
PARP12 (UniProt Q9H0J9)	-0.282	0.0419	-0.00139
PARS2 (UniProt Q7L3T8)	-0.314	-0.928	-0.492
PARVA (UniProt Q9NVD7)	1.14	0.468	0.672
PARVB (UniProt Q9HBI1)	-0.107	-0.459	0.319
PASK (UniProt Q96RG2)	-0.353	0.103	0.0323
PATL1 (UniProt Q86TB9)	-0.0875	-0.613	-0.623
PAWR (UniProt Q96IZ0)	0.349	0.873	0.657
PAXBP1 (UniProt Q9Y5B6)	0.0461	0.125	0.182
PAXIP1 (UniProt Q6ZW49)	0.00378	-0.0199	0.255

From the supplement of paper PMC12463676, “Small-molecule dissolution of stress granules by redox modulation benefits ALS models” (Nature Chemical Biology, 2025)
